Experimental data: patent US8785501B2 (Duquesne University of the Holy Spirit, priority 2009, dated 2014)

System: mammary estrogen-regulated genes (lactoferrin and progesterone receptor)
Experiment: Expression of estrogen-regulated genes in mammary tissue of ovariectomized FVB/n mice
Format: in vivo, mouse
Details: FVB/n OVX mice, n=4, data not shown; versus control (vehicle) and melatonin alone
From the text: Previous studies with melatonin or tamoxifen alone were done in MMTV/neu mice. MMTV/neu mice spontaneously develop HER2/neu mammary cancer beginning at 5 months of […] and have a maximal incidence of >90% after 14 months of age. In this mouse model, tamoxifen and melatonin alone can influence mammary tumor development, growth and/or metastatic progression.

CC/C(=C(\c1ccccc1)c1ccc(OCCN(C)C)cc1)c1ccccc1 [tamoxifen]
progesterone receptor (PR) RNA levels in mammary tissue: significantly different than the control
